From patent US9115137B2, “2,3,4,5-tetrahydro-1H-pyrido[4,3-B]indole compounds and methods of use thereof” (priority 2008, dated 2015)

Tests used:
[1] = biological target: T1, human recombinant serotonin (5-Hydroxytryptamine) 5-HT2C receptor (Homo sapiens, UniProt P28335); experiment: Serotonin 5-HT2C radioligand binding ([3H]Mesulergine); details: compound at 1 μM; CHO-K1 cells; read-out: Serotonin (1 μM) 5-HT2C, percent inhibition of specific binding
T1 construct: expressed in transfected cells; host or cells: CHO-K1 cells
T1 sequence (P28335 33-458): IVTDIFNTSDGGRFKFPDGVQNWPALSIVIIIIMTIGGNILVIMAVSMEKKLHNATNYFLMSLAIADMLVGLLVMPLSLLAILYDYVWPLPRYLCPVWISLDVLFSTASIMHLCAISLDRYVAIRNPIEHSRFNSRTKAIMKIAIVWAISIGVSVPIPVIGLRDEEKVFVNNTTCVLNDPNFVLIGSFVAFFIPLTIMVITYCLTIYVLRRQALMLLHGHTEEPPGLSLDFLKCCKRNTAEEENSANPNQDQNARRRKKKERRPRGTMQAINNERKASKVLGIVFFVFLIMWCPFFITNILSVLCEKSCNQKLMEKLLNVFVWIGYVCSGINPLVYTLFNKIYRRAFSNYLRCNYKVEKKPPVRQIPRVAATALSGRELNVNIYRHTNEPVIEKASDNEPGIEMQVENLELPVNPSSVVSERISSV
Description: To evaluate in radioligand binding assays the activity of compounds of the invention, human recombinant serotonin (5-Hydroxytryptamine) 5-HT2C receptor expressed in Chinese hamster ovary (CHO-K1) cells (Wolf, W. A. and Schutz, J. S., J. Neurochem. 69:1449, 1997) in a modified Tris-HCl buffer (50 mM Tris-HCl, pH 7.4, 0.1% Ascorbic Acid, 10 μM Pargyline) was used. Compounds of the invention were incubated with 1 nM [^3H]Mesulergine for 60 minutes at 25° C. Non-specific binding was estimated in the presence of 1 μM Mianserin. Receptor proteins were filtered and washed, the filters were then counted to determine [^3H]Mesulergine specifically bound. Compounds were screened at 1 μM or lower, using 1% DMSO as vehicle. Biochemical assay results are presented as the percent inhibition of specific binding in Table 7.

[2] = biological target: T2, human recombinant histamine H2 receptor (Homo sapiens, UniProt P25021); experiment: Histamine H2 radioligand binding ([125I]aminopotentidine); details: compound at 1 μM; CHO K1 cells; read-out: Histamine Binding (1 μM) H2, percent inhibition of specific binding
T2 construct: expressed in transfected cells; host or cells: CHO-K1 cells
T2 sequence (P25021 whole entry): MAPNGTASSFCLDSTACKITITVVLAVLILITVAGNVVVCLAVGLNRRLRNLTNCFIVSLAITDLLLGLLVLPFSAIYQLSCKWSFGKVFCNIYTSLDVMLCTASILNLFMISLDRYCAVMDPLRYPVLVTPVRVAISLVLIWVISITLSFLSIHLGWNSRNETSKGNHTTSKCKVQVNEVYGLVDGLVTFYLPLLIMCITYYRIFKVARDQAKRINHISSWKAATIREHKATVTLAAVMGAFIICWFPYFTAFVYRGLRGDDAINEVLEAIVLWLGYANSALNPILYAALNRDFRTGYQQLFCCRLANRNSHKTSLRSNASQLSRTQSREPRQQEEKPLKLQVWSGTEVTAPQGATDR
Description: To evaluate in radioligand binding assays the activity of compounds of the invention, human recombinant histamine H2 receptor expressed in Chinese hamster ovary (CHO) K1 cells (Ruat, M., Proc. Natl. Acad. Sci. USA. 87(5):1658, 1990) in a 50 mM Phosphate buffer, pH 7.4 was used. Compounds of the invention were incubated with 0.1 nM [^125I]aminopotentidine for 120 minutes at 25° C. Non-specific binding was estimated in the presence of 3 μM Tiotidine. Receptor proteins were filtered and washed, the filters were then counted to determine [^125I]Aminopotentidine specifically bound. Compounds were screened at 1 μM, using 1% DMSO as vehicle. Biochemical assay results are presented as the percent inhibition of specific binding in Table 5.

[3] = biological target: T3, human recombinant adrenergic α1D receptor (Homo sapiens, UniProt P25100); experiment: Adrenergic α1D radioligand binding ([3H]Prozosin); details: compound at 1 μM; HEK-293 cells; read-out: Adrenergic (1 μM) α1D, percent inhibition of specific binding
T3 construct: expressed in transfected cells; host or cells: HEK-293 cells
T3 sequence (P25100 1-572): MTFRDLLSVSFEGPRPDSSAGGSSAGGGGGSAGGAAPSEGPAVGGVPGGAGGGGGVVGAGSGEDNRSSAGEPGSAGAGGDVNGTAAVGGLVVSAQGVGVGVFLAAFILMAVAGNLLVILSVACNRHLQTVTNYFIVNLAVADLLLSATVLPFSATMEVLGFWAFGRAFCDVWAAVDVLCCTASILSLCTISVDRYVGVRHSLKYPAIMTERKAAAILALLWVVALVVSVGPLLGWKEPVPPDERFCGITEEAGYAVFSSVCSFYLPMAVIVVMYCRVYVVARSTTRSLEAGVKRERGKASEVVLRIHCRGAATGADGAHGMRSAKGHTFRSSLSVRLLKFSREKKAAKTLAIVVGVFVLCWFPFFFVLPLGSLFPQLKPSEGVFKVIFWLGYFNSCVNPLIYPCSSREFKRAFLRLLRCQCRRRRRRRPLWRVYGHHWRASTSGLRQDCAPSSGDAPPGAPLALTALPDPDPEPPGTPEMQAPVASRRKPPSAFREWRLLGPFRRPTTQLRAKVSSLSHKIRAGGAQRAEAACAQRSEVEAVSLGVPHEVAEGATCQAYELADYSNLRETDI
Description: To evaluate in radioligand binding assays the activity of compounds of the invention, human recombinant adrenergic α1D receptor expressed in human embryonic kidney (HEK-293) cells (Kenny, B. A. et al. Br. J. Pharmacol. 115(6):981, 1995) in a 50 mM Tris-HCl buffer, pH 7.4, was used. Compounds of invention were incubated with 0.6 nM [^3H]Prozosin for 60 minutes at 25° C. Non-specific binding was estimated in the presence of 10 μM phentolamine. Receptor proteins were filtered and washed, the filters were then counted to determine [^3H]Prozosin specifically bound. Compounds were screened at 1 μM or lower, using 1% DMSO as vehicle. Biochemical assay results are presented as the percent inhibition of specific binding in Table 6.

Row | SMILES | inhibition at 1 µM [1] [%] | inhibition at 1 µM [2] [%] | inhibition at 1 µM [3] [%]
1 | CC(C)OC(=O)CCn1c2c(c3cc(Cl)ccc31)CN(C)CC2 [Compound 17, isopropyl 3-(8-chloro-1,2,3,4-tetrahydro-2-methylpyrido[4,3-b]indol-5-yl)propanoate] | 91 | 64 | 73
2 | Cc1ccc2c(c1)c1c(n2CCN)CCN(C)C1 [CD62, 2-(1,2,3,4-tetrahydro-2,8-dimethylpyrido[4,3-b]indol-5-yl)ethanamine] | 28 | 65 | 34
3 | CCNC(=O)CCn1c2c(c3cc(C)ccc31)CN(C)CC2 [Compound 2, N-ethyl-3-(1,2,3,4-tetrahydro-2,8-dimethylpyrido[4,3-b]indol-5-yl)propanamide] | -5 | 5 | 17
4 | CN1CCc2c(c3cc(Cl)ccc3n2CC(=O)OCC2CCCCC2)C1 [Compound 14, cyclohexylmethyl 2-(8-chloro-1,2,3,4-tetrahydro-2-methylpyrido[4,3-b]indol-5-yl)acetate] | 94 | 89 | 72
5 | Cc1ccc2c(c1)c1c(n2CCC(=O)NC2CCCCC2)CCN(C)C1 [Compound 3, N-cyclohexyl-3-(1,2,3,4-tetrahydro-2,8-dimethylpyrido[4,3-b]indol-5-yl)propanamide] | 29 | 23 | 45
6 | Cc1ccc2c(c1)c1c(n2CC(=O)O)CCN(C)C1 [CD58, 2-(1,2,3,4-tetrahydro-2,8-dimethylpyrido[4,3-b]indol-5-yl)acetic acid] | -19 | 5 | 0
7 | CCNC(=O)CCCn1c2c(c3cc(C)ccc31)CN(C)CC2 [Compound 6, N-ethyl-4-(1,2,3,4-tetrahydro-2,8-dimethylpyrido[4,3-b]indol-5-yl)butanamide] | 45 | 0 | 0
8 | Cc1ccc2c(c1)c1c(n2CCC(=O)NCc2ccccc2)CCN(C)C1 [Compound 59, N-benzyl-3-(1,2,3,4-tetrahydro-2,8-dimethylpyrido[4,3-b]indol-5-yl)propanamide] | 72 | 5 | 56
9 | CN1CCc2c(c3cc(Cl)ccc3n2CC(=O)OC(C)(C)C)C1 [Compound 12, tert-butyl 2-(8-chloro-1,2,3,4-tetrahydro-2-methylpyrido[4,3-b]indol-5-yl)acetate] | 83 | 40 | 13
10 | CN1CCc2c(c3cc(Cl)ccc3n2CCC(=O)OC2CCCC2)C1 [Compound 21, cyclopentyl 3-(8-chloro-1,2,3,4-tetrahydro-2-methylpyrido[4,3-b]indol-5-yl)propanoate] | 100 | 82 | 88
11 | Cc1ccc2c(c1)c1c(n2CC(=O)Nc2ccc(F)cc2)CCN(C)C1 [Compound 51, N-(4-fluorophenyl)-2-(1,2,3,4-tetrahydro-2,8-dimethylpyrido[4,3-b]indol-5-yl)acetamide] | 70 | 8 | 29
12 | CCOC(=O)Cn1c2c(c3cc(C)ccc31)CN(C)CC2 [CD57, ethyl 2-(1,2,3,4-tetrahydro-2,8-dimethylpyrido[4,3-b]indol-5-yl)acetate] | 96 | 28 | 39
13 | Cc1ccc2c(c1)c1c(n2CCC(=O)NC2CCCC2)CCN(C)C1 [Compound 4, N-cyclopentyl-3-(1,2,3,4-tetrahydro-2,8-dimethylpyrido[4,3-b]indol-5-yl)propanamide] | 36 | 20 | 64
14 | Cc1ccc2c(c1)c1c(n2C2CCCCC2O)CCN(C)C1 (stereo not drawn) [Compound 73, 2-(1,2,3,4-tetrahydro-2,8-dimethylpyrido[4,3-b]indol-5-yl)cyclohexanol] | 52 | 8 | 6
15 | Cc1ccc2c(c1)c1c(n2CC(=O)NC(C)C)CCN(C)C1 [Compound 23, 2-(1,2,3,4-tetrahydro-2,8-dimethylpyrido[4,3-b]indol-5-yl)-N-isopropylacetamide] | 37 | 1 | 15
16 | CN1CCc2c(c3cc(Cl)ccc3n2CCCO)C1 [CD87, 3-(8-chloro-2-methyl-3,4-dihydro-1H-pyrido[4,3-b]indol-5(2H)-yl)propan-1-ol] | 79 | 18 | 75
17 | Cc1ccc2c(c1)c1c(n2CC(=O)NC(C)(C)C)CCN(C)C1 [Compound 24, N-tert-butyl-2-(1,2,3,4-tetrahydro-2,8-dimethylpyrido[4,3-b]indol-5-yl)acetamide] | 21 | 5 | -4
18 | CN1CCc2c(c3cc(Cl)ccc3n2CCC(N)=O)C1 [Compound 67, 3-(8-chloro-1,2,3,4-tetrahydro-2-methylpyrido[4,3-b]indol-5-yl)propanamide] | 65 | -6 | 32
19 | CCOC(=O)CCCn1c2c(c3cc(C)ccc31)CN(C)CC2 [Compound 5, ethyl 4-(1,2,3,4-tetrahydro-2,8-dimethylpyrido[4,3-b]indol-5-yl)butanoate] | 96 | 48 | 70
20 | Cc1ccc2c(c1)c1c(n2CCNC(=O)c2ccc(F)cc2Cl)CCN(C)C1 [Compound 63, 2-chloro-4-fluoro-N-(2-(1,2,3,4-tetrahydro-2,8-dimethylpyrido[4,3-b]indol-5-yl)ethyl)benzamide] | 72 | 35 | 56
21 | Cc1ccc2c(c1)c1c(n2CCBr)CCN(C)C1 [CD91, 5-(2-bromoethyl)-2,8-dimethyl-2,3,4,5-tetrahydro-1H-pyrido[4,3-b]indole] | 98 | 65 | 88
22 | Cc1ccc2c(c1)c1c(n2CCC(=O)O)CCN(C)C1 [CD47, 3-(1,2,3,4-tetrahydro-2,8-dimethylpyrido[4,3-b]indol-5-yl)propanoic acid] | 25 | 16 | 6
23 | CN1CCc2c(c3cc(Cl)ccc3n2CCC(=O)N(C)C)C1 [Compound 49, 3-(8-chloro-1,2,3,4-tetrahydro-2-methylpyrido[4,3-b]indol-5-yl)-N,N-dimethylpropanamide] | 47 | 5 | 18
